Reference: patent US20230192787A1, “DIAGNOSIS METHODS, DIAGNOSTIC AGENTS, AND THERAPEUTIC AGENTS AGAINST ALZHEIMER'S DISEASE AND FRONTOTEMPORAL LOBAR DEGENERATION, AND SCREENING METHODS FOR THESE AGENTS” (National University Corporation Tokyo Medical and Dental …, priority 2013, published 2023)
Entries after “also recorded” stand apart in the source; their conditions may differ.

Tests used:
[1] = tested on: 5×FAD mice; assay: In vivo two-photon imaging of dendritic spines after administering kinase inhibitors/activator; set-up: species or system mouse; conditions: 5×FAD mice (12 weeks old); for spine densities by morphological type (thin, mushroom, stubby) / spine dynamics: spine formation and stability: 36 hours and 60 hours after administration; for dendritic spine density (total spine density): layer 1 of retrosplenial cortex, 36 hours and 60 hours after administration by osmotic pump
Method: (§1) Two-photon imaging of dendritic spine was performed using a laser-scanning microscope system FV1000MPE2 (manufactured by Olympus Corporation) equipped with an upright microscope (BX61WI, manufactured by Olympus Corporation, a water-immersion objective lens (XLPlanN25xW; numerical aperture, 1.05), and a pulsed laser (MaiTai HP DeepSee, manufactured by Spectra Physics). In the imaging, EGFP was excited by light at a wavelength of 890 nm, and scanned in a range of 500 to 550 nm. Moreover, the scanned region for three-dimensional imaging was 100×100 μm (1 μm Z-axis steps, 1024×1024 pixels).
(§2) Additionally, two weeks before the imaging, adeno-associated virus 1 (AAV1)-EGFP with the synapsin 1 promoter (titer: 1×10^10 vector genomes/mL, 1 μL) was injected into the retrosplenial cortex (−2.0 mm anteroposterior and 0.6 mm mediolateral from the bregma, depth 1 mm) of mice under anesthesia with 2.5% isoflurane. Then, two weeks thereafter, the dendritic spines of the first layer (layer 1) of the cerebral cortex were observed through a thinned skull window according to the method described in “Yang, G. et al., Nat. Protoc., 2010, Vol. 5, pp. 201 to 208.”
Moreover, when the influence of kinase inhibition on dendritic spines was imaged, Alzet micro-osmotic pumps (model: 1003D, manufactured by Durect Corporation) filled with PBS/1% DMSO containing 1 μM Go6976 (manufactured by Calbiochem), 0.4 mM KN-93 (manufactured by Cayman Chemical), or 1 μM MLR1023 (manufactured by Glixx Laboratories) were implanted into mice under anesthesia with O2/isoflurane. […] Note that, regarding the PKC inhibitor Go6976, see Yan, Z. et al., Proc. Natl. Acad. Sci. U.S.A., 1999, Vol. 96, pp. 11607 to 11612. Regarding the CaMK inhibitor KN-93, see Galan, A. et al., Pain, 2004, Vol. 112, pp. 315 to 323. Regarding the Lyn activator MLR1023, see Saporito, M. S. et al., J. Pharmacol. Exp. Ther., 2012, Vol. 342, pp. 15 to 22.
In addition, the spine density, spine length, spine maximum diameter, and spine neck minimum diameter were measured from the obtained images using image analysis software IMARIS 7.2.2 (manufactured by Bitplane).
More concretely, the effect of the kinases on the synaptic pathology in the 5×FAD mice was analyzed by administering inhibitors and so forth against these kinases into the subarachnoid spaces of the mice. FIGS. 4 to 9 show the obtained result.

[2] = tested on: PGRN-KI mice; assay: Fear-conditioning test in FTLD model mice; type: in vivo, mouse; conditions: provided every day over 6 weeks from 6 weeks old
Method: In this test, first, a mouse received a sound stimulus (65-dB white noise, 30 seconds) together with an electrical stimulus (0.4 mA, 2 seconds) on the foot. Then, after 24 hours, the mouse was measured for the frequency of the freezing reaction when the mouse received a sound stimulus but no electrical stimulus in the same chamber.
To be more specific, in accordance with the protocol shown in FIG. 21, a b-raf specific inhibitor vemurafenib or PBS was provided to the 6-week-old PGRN-KI mice every day over 6 weeks. Then, the behaviors of these mice were evaluated in the Morris water maze test and the fear-conditioning test. FIGS. 22 and 23 show the obtained result.
Meanwhile, the therapeutic effect of thalidomide was also tested. Note that thalidomide is known to suppress the TNF signal transduction pathway. Concretely, in accordance with the protocol shown in FIG. 24, thalidomide was administered to the PGRN-KI mice by peritoneal cavity injection every day for the same period as that in the protocol using the b-raf inhibitor. The behaviors of these mice were evaluated by the above two tests. FIGS. 25 and 26 show the obtained result.

[3] = tested on: phosphorylated b-RAF protein; assay: Western blot of cerebral cortexes of treated PGRN-KI mice, phosphorylated b-RAF; type: in vivo, mouse
Method: (§3) FIG. 27 is a figure for illustrating the result of western blot analysis on the cerebral cortexes of wild-type mice (WT) and the PGRN-KI mice to which vemurafenib was administered. […] “Anti-p-Braf” and “Anti-p-PKC” respectively show the analysis result of phosphorylated b-RAF protein and the analysis result of phosphorylated PKC protein. […] The significant differences were evaluated based on the P-value calculated by Student's independent t-test.
(§4) FIG. 28 is a figure for illustrating the result of western blot analysis on the cerebral cortexes of the PGRN-KI mice to which thalidomide was administered. […] “Anti-p-Braf”, “Anti-Braf”, and “Anti-p-PKC” respectively show the analysis result of phosphorylated b-raf protein, the analysis result of b-raf protein, and the analysis result of phosphorylated PKC protein. […] Further, in the figure, one asterisk indicates p<0.05 in Student's independent t-test, and two asterisks indicate p<0.01 in Student's independent t-test.
(§5) Moreover, the cerebral cortexes of the PGRN-KI mice treated with the agent were analyzed by western blot.

[4] = tested on: phosphorylated PKC protein; assay: Western blot of cerebral cortexes of treated PGRN-KI mice, phosphorylated PKC; type: in vivo, mouse
Method: as §3, §4, §5

[5] = tested on: PGRN-KI mice; assay: Immunohistological analysis of protein aggregation in brains of PGRN-KI mice; type: in vivo, mouse
From the text: To be more specific, as the first hypothesis, the aforementioned therapeutic effect by suppressing b-raf phosphorylation was presumably based on the elimination of protein aggregation in the nerve by vemurafenib or thalidomide. Accordingly, analyzed was the recovery effect of vemurafenib or thalidomide on the protein aggregation in the cerebral cortexes of the PGRN-KI mice.

[6] = tested on: PGRN-KI mice; assay: Morris water maze test in FTLD model mice; type: in vivo, mouse; conditions: provided every day over 6 weeks from 6 weeks old
Method: In this test, the mice received a 60-second trial four times a day for 5 days. The time until each mouse reached the platform was measured.
Furthermore, the PGRN-KI mice were also subjected to six behavioral tests as in the case of Alzheimer's disease model mice described above. As a result, abnormalities regarding anxiety memory and anxiety-related memory were not observed in the open-field test, the light-dark box test, and the elevated plus maze test. […] Moreover, in the Morris water maze test, a statistically significant decrease was observed from the age of 3 months in the time during which the mice stayed in the target region or the number of times the mice passed through the target. […] Note that, in the Morris water maze test using the PGRN-KI mice, the mice received the 60-second trial four times a day for 5 days to learn the position of the platform (target region). […]
To be more specific, in accordance with the protocol shown in FIG. 21, a b-raf specific inhibitor vemurafenib or PBS was provided to the 6-week-old PGRN-KI mice every day over 6 weeks. Then, the behaviors of these mice were evaluated in the Morris water maze test and the fear-conditioning test. […]
Meanwhile, the therapeutic effect of thalidomide was also tested. […] The behaviors of these mice were evaluated by the above two tests. […]

[7] = tested on: PGRN-KI mice; assay: In vivo two-photon imaging of synaptic spines in retrosplenial cortex of PGRN-KI mice (recovery experiment); set-up: species or system mouse
Method: as §1, §2
A pharmacological recovery experiment was conducted on the PGRN-KI mice as follows. […]
In addition, analyzed was whether or not vemurafenib and/or tau knockdown enabled recovery of spine related phenotype. […]

| SMILES | spine densities by morphological type (thin, mushroom, stubby) [1] | spine dynamics: spine formation and stability [1] | dendritic spine density (total spine density) [1] | scores in the fear-conditioning test [2] | b-raf phosphorylation [3] | PKC phosphorylation [4] | FUS and p62 inclusion (IB) [5] | transition of TDP43 into the cytoplasm [5] | scores in the Morris water maze test [6] | number of spines ([7]; PGRN-KI mice (12 weeks old), vemurafenib 1.7 μM by osmotic pump for 3 days, shRNA imaged on Day 5) | spine volume ([7]; PGRN-KI mice, trend, not a statistically significant difference) |
| --- | --- | --- | --- | --- | --- | --- | --- | --- | --- | --- | --- |
| Cn1c2ccccc2c2c3c(c4c5ccccc5n(CCC#N)c4c21)CNC3=O [Go6976] | the decreases were recovered; also recorded: increased | enhanced the spine formation and stability | recovered the decrease of spines; also recorded: increased the total spine density | – | – | – | – | – | – | – | – |
| COc1ccc(S(=O)(=O)N(CCO)c2ccccc2CN(C)C/C=C/c2ccc(Cl)cc2)cc1 [KN-93] | the decreases were recovered | had a therapeutic effect on the spine formation and stability | recovered the decrease of spines | – | – | – | – | – | – | – | – |
| Cc1cccc(Oc2cnc(O)nc2)c1 [MLR1023] | the decreases were recovered | had a therapeutic effect on the spine formation and stability | recovered the decrease of spines | – | – | – | – | – | – | – | – |
| O=C1CCC(N2C(=O)c3ccccc3C2=O)C(=O)N1 (centres unmarked) [thalidomide] | – | – | – | beneficial effects were finally verified | the b-raf phosphorylation was suppressing | the PKC phosphorylation was not suppressed | no significant effect | no large change was observed | beneficial effects were finally verified | – | – |
| CCCS(=O)(=O)Nc1ccc(F)c(C(=O)c2c[nH]c3ncc(-c4ccc(Cl)cc4)cc23)c1F [vemurafenib, N-{3-[5-(4-chlorophenyl)-1H-pyrrolo[2,3-b]pyridine-3-carbonyl]-2,4-difluorophenyl}propane-1-sulfonamide] | – | – | – | remarkably recovered the scores in the two tests | suppressed the b-raf phosphorylation | also suppressed the PKC phosphorylation | no significant effect | no large change was observed | remarkably recovered the scores in the two tests | recovered the number of spines; also recorded: had a recovery effect on the number of spines | decreased the spine volume |
